“Also recorded” adds a separate entry of the source. Where two headings read alike, the source gives them in different places. Blank lines part the entries; values can stand above or below the compound they belong to.
Legend:
BxPC-3 cells = assay: CCK-8 anti-proliferative assay, BxPC-3; format: cell-based, human; conditions: for IC50: Homo sapiens, BXPC-3, co-incubated 48 h, read-out: Anti-proliferative activity (IC50 ± standard deviation) BxPC-3
Outline: (§1)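 Cells seeded at 5,000/well were grown at 37° C. under 5% CO2 to 70% confluency, then exposed in triplicate to 1–30 μM compound (1, 2, 4, 6, 8, 12, 16, 24, 30 μM) for designated durations. CCK-8 was added for 1–4 h, OD read at 450 nm, and IC50 derived from inhibition versus control.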

T24 cells = assay: CCK-8 anti-proliferative assay, T24; format: cell-based, human; conditions: Homo sapiens, T-24, co-incubated 48 h, read-out: Anti-proliferative activity (IC50 ± standard deviation) T24
Outline: as §1

143B cells = assay: CCK-8 anti-proliferative assay, 143B; format: cell-based, human; conditions: Homo sapiens, 143B
Outline: as §1

PANC-1 cells = assay: CCK-8 anti-proliferative assay, PANC-1; format: cell-based, human; conditions: for IC50: Homo sapiens, PANC-1, co-incubated 48 h, read-out: Anti-proliferative activity (IC50 ± standard deviation) PANC-1
Outline: as §1

HeLa cells = assay: CCK-8 anti-proliferative assay, HeLa; format: cell-based, human; conditions: for IC50: Homo sapiens, HeLa, co-incubated 48 h, read-out: Anti-proliferative activity (IC50 ± standard deviation) HeLa
Outline: (§2)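 Cells seeded at 5,000/well and grown at 37° C., 5% CO2 to 70% confluency, then treated with compound at final 1, 2, 4, 6, 8, 12, 16, 24 and 30 μM in triplicate.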

Hep G2 cells = assay: CCK-8 anti-proliferative assay, Hep G2; format: cell-based, human; conditions: Homo sapiens, HepG2, co-incubated 48 h, read-out: Anti-proliferative activity (IC50 ± standard deviation) Hep G2
Outline: as §1

[1] = system: embryonic lung fibroblasts (WI-38); assay: CCK-8 anti-proliferative assay, normal cells WI-38; format: cell-based, human; conditions: Homo sapiens, read-out: Anti-proliferative activity (IC50 ± standard deviation) WI-38
Outline: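 Absorbance at 450 nm after CCK-8 labelling (1–4 h, varying by cell line) gave inhibition relative to untreated control, from which IC50 values were derived. Compounds were applied at final concentrations of 1 to 30 μM in triplicate wells once cultures reached 70% confluency, with co-incubation for designated durations.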

5637 cells = assay: CCK-8 anti-proliferative assay, 5637; format: cell-based, human; conditions: Homo sapiens
Outline: as §2

MCF-7 cells = assay: CCK-8 anti-proliferative assay, MCF-7; format: cell-based, human; conditions: for IC50: Homo sapiens, MCF7, co-incubated 48 h, read-out: Anti-proliferative activity (IC50 ± standard deviation) MCF-7
Outline: as §2

SK-OV-3 cells = assay: CCK-8 anti-proliferative assay, SK-OV-3; format: cell-based, human; conditions: Homo sapiens, SK-OV-3, co-incubated 48 h, read-out: Anti-proliferative activity (IC50 ± standard deviation) SK-OV-3
Outline: as §2

[2] = format: physicochemical
Procedure: 0.9% normal saline was added thereto to obtain a solution, which was sterilized under UV light for 30 min. Administration volume was 10 mL/kg per mouse. […]
A resulting mixture was sterilized under UV light for 30 min. Administration volume was 10 mL/kg per mouse.

[3] = system: immortalized ureteral epithelial cells (SV-HUC-1); assay: CCK-8 anti-proliferative assay, normal cells SV-HUC-1; format: cell-based, human; conditions: Homo sapiens, SV-HUC1, normal cells, co-incubated 48 h, read-out: Anti-proliferative activity (IC50 ± standard deviation) SV-HUC-1
Outline: as §2

UM-UC-3 cells = assay: CCK-8 anti-proliferative assay, UM-UC-3; format: cell-based, human; conditions: Homo sapiens, UMUC3, co-incubated 48 h, read-out: Anti-proliferative activity (IC50 ± standard deviation) UM-UC-3
Outline: as §2

A549 cells = assay: CCK-8 anti-proliferative assay, A549; format: cell-based, human; conditions: for IC50: Homo sapiens, A549, co-incubated 48 h, read-out: Anti-proliferative activity (IC50 ± standard deviation) A549
Outline: as §2

J82 cells = assay: CCK-8 anti-proliferative assay, J82; format: cell-based, human; conditions: Homo sapiens, J82
Outline: as §2

MG-63 cells = assay: CCK-8 anti-proliferative assay, MG-63; format: cell-based, human; conditions: Homo sapiens, MG-63
Outline: as §1

[4] = read-out: IC50 values, osteosarcoma cells 143B
[5] = read-out: IC50 values, osteosarcoma cells MG-63

- IC50 (BxPC-3 cells; Table 7): 6.53 ± 0.48 µM
- IC50 (T24 cells; Table 6): 4.57 ± 0.42 µM
- IC50 (PANC-1 cells; Table 7): 7.72 ± 0.66 µM
- IC50 (HeLa cells; Table 8): 4.33 ± 0.45 µM
- IC50 (MCF-7 cells; Table 8): 3.25 ± 0.35 µM
- IC50 (SK-OV-3 cells; Table 9): 5.04 ± 0.32 µM
- Solubility in co-solvents (PEG400+normal saline, PEG400+PBS, PEG400+5% dextrose injection) [2]: superior solubility
- Solubility in the PEG400-0.9% normal saline mixture ([2]; PEG400:0.9% normal saline 3:1): desirable solubility
- IC50 (A549 cells; Table 8): 4.39 ± 0.34 µM
SMILES: COc1cc2ncnc(NCc3cccc(NC(=O)Nc4ccc(C(C)(C)C)cc4)c3)c2cc1OCCCCCCN1CCN(CCN2CCOCC2)CC1 [Compound 8-1j, N-(3-(((7-methoxy-6-((6-(4-(2-morpholinoethyl)piperazin-1-yl)hexyl)oxy)quinazolin-4-yl)amino)methyl)phenyl)-N′-(4-tert-butylphenyl)urea]
- Sensitivity of BxPC-3 / anti-proliferative activity against BxPC-3, in words (BxPC-3 cells): sensitive; also recorded: less sensitive
- IC50 (143B cells; Table 7, co-incubated 48 h, read-out: Anti-proliferative activity (IC50 ± standard deviation) 143B): 3.43 ± 0.25 µM
- IC50 (143B cells; [4]): < 5 µM
- IC50 (Hep G2 cells; Table 8): 3.83 ± 0.36 µM
- IC50 ([1]; WI-38, Table 9, co-incubated 48 h): 10.3 ± 0.36 µM
- IC50 (5637 cells; Table 6, co-incubated 48 h, read-out: Anti-proliferative activity (IC50 ± standard deviation) 5637): 3.29 ± 0.27 µM
- IC50 (5637 cells; read-out: IC50 values against 5637 cells): 3.29 ± 0.27 µM
- Sensitivity of MCF-7, in words (MCF-7 cells): sensitive
- IC50 ([3]; Table 9): 8.03 ± 0.41 µM
- IC50 (UM-UC-3 cells; Table 6): 3.53 ± 0.39 µM
- IC50 (J82 cells; Table 6, co-incubated 48 h, read-out: Anti-proliferative activity (IC50 ± standard deviation) J82): 2.98 ± 0.27 µM
- IC50 (J82 cells; read-out: IC50 values against J82 cells): 2.98 ± 0.27 µM
- IC50 (MG-63 cells; Table 7, co-incubated 48 h, read-out: Anti-proliferative activity (IC50 ± standard deviation) MG-63): 4.17 ± 0.38 µM
- IC50 (MG-63 cells; [5]): < 5 µM

SMILES: CCc1cccc(CC)c1NC(=O)Nc1cccc(CNc2ncnc3cc(OC)c(OCCCCCCN4CCC(CN5CCN(c6ccccn6)CC5)CC4)cc23)c1 [Compound 8-2h, N-(3-(((7-methoxy-6-((6-(4-((4-(pyridin-2-yl)piperazin-1-yl)methyl)piperidin-1-yl)hexyl)oxy)quinazolin-4-yl)amino)methyl)phenyl)-N′-(2,6-diethylphenyl)urea]
- Sensitivity of BxPC-3 / anti-proliferative activity against BxPC-3, in words (BxPC-3 cells): significantly stronger anti-proliferative activity against BxPC-3 than positive control Sora; also recorded: heightened sensitivity; also recorded: very sensitive; also recorded: highly sensitive
- IC50 (BxPC-3 cells; Table 11): 3.66 ± 0.24 µM
- IC50 (T24 cells; Table 10): 4.21 ± 0.36 µM
- IC50 (143B cells; Table 11, co-incubated 48 h, read-out: Anti-proliferative activity (IC50 ± standard deviation) 143B): 4.91 ± 0.36 µM
- IC50 (143B cells; [4]): < 5 µM
- Sensitivity of PANC-1, in words (PANC-1 cells): sensitive; also recorded: heightened sensitivity
- IC50 (PANC-1 cells; Table 11): 4.88 ± 0.29 µM
- Sensitivity of HeLa, in words (HeLa cells): sensitive
- IC50 (HeLa cells; Table 12): 3.29 ± 0.18 µM
- IC50 (Hep G2 cells; Table 12): 4.66 ± 0.38 µM
- IC50 ([1]; WI-38, Table 13, co-incubated 48 h): 9.58 ± 0.43 µM
- IC50 (5637 cells; Table 10, co-incubated 48 h, read-out: Anti-proliferative activity (IC50 ± standard deviation) 5637): 4.18 ± 0.22 µM
- IC50 (MCF-7 cells; Table 12): 5.38 ± 0.35 µM
- IC50 (SK-OV-3 cells; Table 12): 6.12 ± 0.55 µM
- Solubility in co-solvents (PEG400+normal saline, PEG400+PBS, PEG400+5% dextrose injection) [2]: superior solubility
- IC50 ([3]; Table 13): 9.53 ± 0.83 µM
- IC50 (UM-UC-3 cells; Table 10): 5.09 ± 0.35 µM
- Activity against A549 versus the 8-1 to 8-23 series, in words (A549 cells): significantly enhanced activity against A549
- IC50 (A549 cells; Table 13): 3.41 ± 0.26 µM
- IC50 (J82 cells; Table 10, co-incubated 48 h, read-out: Anti-proliferative activity (IC50 ± standard deviation) J82): 4.42 ± 0.29 µM
- IC50 (MG-63 cells; Table 11, co-incubated 48 h, read-out: Anti-proliferative activity (IC50 ± standard deviation) MG-63): 3.97 ± 0.26 µM
- IC50 (MG-63 cells; [5]): < 5 µM
